Like-named read-outs stand apart in the source and are kept apart here.
Legend:
SIK1 = biological target: T1, SIK1 (Homo sapiens, UniProt P57059); assay: ADP-Glo kinase assay, SIK1; type: biochemical; conditions: ADP-Glo SIK kinase assay
T1 construct: purchased Carna Biosciences 02-131
Procedure, shortened: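 Enzyme–substrate mix was started with ATP and incubated 120 min at RT. ADP formed was quantified by ADP-Glo: 40 min ATP depletion, then 30 min detection reagent converting ADP to ATP for luciferase luminescence, which rises with kinase activity. Controls: 1% DMSO and 10 μM staurosporine (final).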

[1] = tested on: LPS-induced TNFα in monocyte-derived macrophages (MdM); assay: MdM assay: LPS-triggered TNFα (ELISA); type: cell-based, human; conditions: monocyte-derived macrophages, LPS 200 ng/mL, supernatant after 20 h, read-out: TNFα EC50
Procedure, shortened: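 Human monocyte-derived macrophages from CD14+ bead-selected buffy-coat PBMCs, used on day 10, pre-treated with compound for 1 h at 37 °C (0.2% DMSO), then stimulated with 200 ng/mL LPS. Supernatant taken after 20 h for TNFα sandwich ELISA (IL-10 at 2 h).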

T1 sequence (P57059 whole entry): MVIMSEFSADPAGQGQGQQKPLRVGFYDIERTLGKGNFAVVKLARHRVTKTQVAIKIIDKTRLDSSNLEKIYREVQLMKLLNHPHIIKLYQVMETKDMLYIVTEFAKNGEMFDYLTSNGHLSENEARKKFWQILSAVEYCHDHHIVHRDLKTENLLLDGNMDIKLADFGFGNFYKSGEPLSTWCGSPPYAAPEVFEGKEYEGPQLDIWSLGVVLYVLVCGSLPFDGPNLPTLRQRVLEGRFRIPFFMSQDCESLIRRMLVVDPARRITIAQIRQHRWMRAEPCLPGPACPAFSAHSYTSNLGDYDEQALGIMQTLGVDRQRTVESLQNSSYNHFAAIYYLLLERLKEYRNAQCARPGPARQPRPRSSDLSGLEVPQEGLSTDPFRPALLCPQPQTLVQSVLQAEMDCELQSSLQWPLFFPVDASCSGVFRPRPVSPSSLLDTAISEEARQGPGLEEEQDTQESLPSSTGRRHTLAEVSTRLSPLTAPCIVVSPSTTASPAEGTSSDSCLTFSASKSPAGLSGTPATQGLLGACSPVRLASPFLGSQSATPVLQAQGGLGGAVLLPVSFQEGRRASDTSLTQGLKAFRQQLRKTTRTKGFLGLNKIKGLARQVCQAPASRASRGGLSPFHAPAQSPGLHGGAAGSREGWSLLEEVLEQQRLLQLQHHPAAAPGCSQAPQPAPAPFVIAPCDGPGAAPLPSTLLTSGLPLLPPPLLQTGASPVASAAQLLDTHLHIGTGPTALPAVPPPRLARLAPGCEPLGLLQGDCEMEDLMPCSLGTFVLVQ

Row | Structure (SMILES) | IC50 (SIK1) [nM] | EC50 [1] [nM] | EC50 ([1]; Homo sapiens, Macrophage, 20 h) [nM]
1 | COc1cc(-c2cnc3cc(OCC(O)CN4CCOCC4)ccn23)cc(OC(F)F)c1C(=O)NC1CC1 (single isomer, unassigned) [Cpd 387, N-cyclopropyl-2-(difluoromethoxy)-4-[7-(2-hydroxy-3-morpholino-propoxy)imidazo[1,2-a]pyridin-3-yl]-6-methoxy-benzamide] | 10 to 100 | 0.1 to 100 | 
2 | CCN(CC)CCOc1ccn2c(-c3cc(OC)c(C(=O)NC4CC4)c(OC(F)F)c3)cnc2c1 [compound 107, N-cyclopropyl-4-[7-[2-(diethylamino)ethoxy]imidazo[1,2-a]pyridin-3-yl]-2-(difluoromethoxy)-6-methoxy-benzamide] | 100 to 500 |  | 100 to 1000
3 | COc1cc(-c2cnc3cc(OCCN4CCN(C)CC4)ccn23)cc(OC(F)F)c1C(=O)NC1CC1 [compound 9, N-cyclopropyl-2-(difluoromethoxy)-6-methoxy-4-[7-[2-(4-methylpiperazin-1-yl)ethoxy]imidazo[1,2-a]pyridin-3-yl]benzamide] | 10 to 100 |  | 100 to 1000
4 | COc1cc(-c2cnc3cc(OCCN4CCOC[C@@H]4C)ccn23)cc(OC(F)F)c1C(=O)NC1CC1 [compound 233, N-cyclopropyl-2-(difluoromethoxy)-6-methoxy-4-[7-[2-[(3S)-3-methylmorpholin-4-yl]ethoxy]imidazo[1,2-a]pyridin-3-yl]benzamide] | 10 to 100 |  | 100 to 1000
5 | COc1cc(-c2cnc3cc(OCC4CN(C)C4)ccn23)cc2c1C(=O)N(CC(F)(F)F)CC2 [compound 39, 8-methoxy-6-[7-[(1-methylazetidin-3-yl)methoxy]imidazo[1,2-a]pyridin-3-yl]-2-(2,2,2-trifluoroethyl)-3,4-dihydro isoquinolin-1-one] | 100 to 500 |  | 100 to 1000
6 | COc1cc(-c2cnc3cc(OCCN)ccn23)cc(OC(F)F)c1C(=O)NC1CC1 [compound 118, 4-[7-(2-aminoethoxy)imidazo[1,2-a]pyridin-3-yl]-N-cyclopropyl-2-(difluoromethoxy)-6-methoxy-benzamide] | 10 to 100 |  | 100 to 1000
7 | CNc1cc(-c2cnc3cc(OCCN(C)C)ccn23)cc(OC(F)F)c1C(=O)NCC(F)(F)F [Cpd 165, 2-(difluoromethoxy)-4-[7-[2-(dimethylamino)ethoxy]imidazo[1,2-a]pyridin-3-yl]-6-(methylamino)-N-(2,2,2-trifluoroethyl)benzamide] | 100 to 500 |  | 100 to 1000
8 | COc1cc(-c2cnc3cc(OC[C@H]4CCCN4C)ccn23)cc2c1C(=O)N(CC(F)(F)F)CC2 [compound 124, 8-methoxy-6-[7-[[(2R)-1-methylpyrrolidin-2-yl]methoxy]imidazo[1,2-a]pyridin-3-yl]-2-(2,2,2-trifluoroethyl)-3,4-dihydroisoquinolin-1-one] | > 500 |  | 100 to 1000
9 | COc1cc(-c2cnc3cc(OCCN(C)C)ccn23)cc2c1C(=O)N(CC(F)(F)F)CC2 [Cpd 18, 6-[7-[2-(dimethylamino)ethoxy]imidazo[1,2-a]pyridin-3-yl]-8-methoxy-2-(2,2,2-trifluoroethyl)-3,4-dihydroisoquinolin-1-one] | > 500 |  | 100 to 1000
10 | CCN1CCCCC1COc1ccn2c(-c3cc(OC)c(C(=O)NC4CC4)c(OC(F)F)c3)cnc2c1 (stereo not drawn) [compound 83, N-cyclopropyl-2-(difluoromethoxy)-4-[7-[(1-ethyl-2-piperidyl)methoxy]imidazo [1,2-a]pyridin-3-yl]-6-methoxy-benzamide] | 100 to 500 |  | 100 to 1000
11 | COc1cc(-c2cnc3cc(OCCCN4CC5(COC5)C4)ccn23)cc(OC(F)F)c1C(=O)NC1CC1 [compound 273, N-cyclopropyl-2-(difluoromethoxy)-6-methoxy-4-[7-[3-(2-oxa-6-azaspiro[3.3]heptan-6-yl)propoxy]imidazo[1,2-a]pyridin-3-yl]benzamide] | 10 to 100 |  | 100 to 1000
12 | COc1cc(-c2cnc3cc(OCCCN(C)C)ccn23)cc(OC(F)F)c1C(=O)NC1CC1 [Cpd 13] | 10 to 100 |  | 0.1 to 100
13 | COc1cc(-c2cnc3cc(OCCCN4CCC5(CC4)CNC(=O)O5)ccn23)cc(OC(F)F)c1C(=O)NC1CC1 [Cpd 324, N-cyclopropyl-2-(difluoromethoxy)-6-methoxy-4-[7-[3-(2-oxo-1-oxa-3,8-diazaspiro[4.5]decan-8-yl)propoxy]imidazo[1,2-a]pyridin-3-yl]benzamide] | 10 to 100 |  | 100 to 1000
14 | COc1cc(-c2cnc3cc(OCC4(F)CN(C(=O)OC(C)(C)C)C4)ccn23)cc2c1C(=O)N(CC(F)(F)F)CC2 [compound 248, tert-butyl 3-fluoro-3-[[3-[8-methoxy-1-oxo-2-(2,2,2-trifluoroethyl)-3,4-dihydroisoquinolin-6-yl]imidazo[1,2-a]pyridin-7-yl]oxymethyl]azetidine-1-carboxylate] | 100 to 500 |  | 100 to 1000
15 | CN(C)CCOc1ccn2c(-c3cc(OC(F)F)c(C(=O)NC4CC4)c(OC(F)F)c3)cnc2c1 [compound 156, N-cyclopropyl-2,6-bis(difluoromethoxy)-4-[7-[2-(dimethylamino)ethoxy]imidazo[1,2-a]pyridin-3-yl]benzamide] | 10 to 100 |  | 100 to 1000
16 | COc1cc(-c2cnc3cc(OC[C@H]4CN(C)CCO4)ccn23)cc2c1C(=O)N(CC(F)(F)F)CC2 [compound 190, 8-methoxy-6-[7-[[(2R)-4-methylmorpholin-2-yl]methoxy]imidazo[1,2-a]pyridin-3-yl]-2-(2,2,2-trifluoroethyl)-3,4-dihydro isoquinolin-1-one] | 100 to 500 |  | 100 to 1000
17 | COc1cc(-c2cnc3cc(OCCN4CCS(=O)(=O)CC4)ccn23)cc2c1C(=O)N(CC(F)(F)F)CC2 [compound 41, 6-[7-[2-(1,1-dioxo-1,4-thiazinan-4-yl)ethoxy]imidazo[1,2-a]pyridin-3-yl]-8-methoxy-2-(2,2,2-trifluoroethyl)-3,4-dihydroisoquinolin-1-one] | 100 to 500 |  | 1000 to 5000
18 | COc1cc(-c2cnc3cc(OC[C@H]4COCCO4)ccn23)cc2c1C(=O)NCC2 [compound 242, 6-[7-[[(2R)-1,4-dioxan-2-yl]methoxy]imidazo[1,2-a]pyridin-3-yl]-8-methoxy-3,4-dihydro-2H-isoquinolin-1-one] | 10 to 100 |  | 100 to 1000
19 | COc1cc(-c2cnc3cc(OCCN(C)C)ccn23)cc(OC(F)F)c1C(=O)NC1CC1 [Cpd 6, N-cyclopropyl-2-(difluoromethoxy)-4-[7-[2-(dimethylamino)ethoxy]imidazo[1,2-a]pyridin-3-yl]-6-methoxy-benzamide] | 100 to 500 |  | 100 to 1000
20 | COc1cc(-c2cnc3cc(OC[C@H]4CCCCN4C)ccn23)cc(OC(F)F)c1C(=O)NC1CC1 [compound 111, N-cyclopropyl-2-(difluoromethoxy)-6-methoxy-4-[7-[[(2R)-1-methyl-2-piperidyl]methoxy]imidazo[1,2-a]pyridin-3-yl]benzamide] | 100 to 500 |  | 100 to 1000
21 | CN(C)CCOc1ccn2c(-c3cc4c(c(OC(F)F)c3)C(=O)N(CC(F)F)CC4)cnc2c1 [Cpd 150, 2-(2,2-difluoroethyl)-8-(difluoromethoxy)-6-[7-[2-(dimethylamino)ethoxy]imidazo[1,2-a]pyridin-3-yl]-3,4-dihydroisoquinolin-1-one] | 100 to 500 |  | 100 to 1000
22 | COc1cc(-c2cnc3cc(OCCN4CCCC4)ccn23)cc2c1C(=O)N(CC(F)(F)F)CC2 [compound 123, 8-methoxy-6-[7-(2-pyrrolidin-1-ylethoxy)imidazo[1,2-a]pyridin-3-yl]-2-(2,2,2-trifluoroethyl)-3,4-dihydroisoquinolin-1-one] | > 500 |  | 100 to 1000
23 | COc1cc(-c2cnc3cc(OCCN4C[C@@H]5C[C@H]4CO5)ccn23)cc(OC(F)F)c1C(=O)NC1CC1 [compound 206, N-cyclopropyl-2-(difluoromethoxy)-6-methoxy-4-[7-[2-[(1S,4S)-2-oxa-5-azabicyclo[2.2.1]heptan-5-yl]ethoxy]imidazo[1,2-a]pyridin-3-yl]benzamide] | 10 to 100 |  | 100 to 1000
24 | COc1cc(-c2cnc3cc(OCc4nncn4C)ccn23)cc(OC(F)F)c1C(=O)NC1CC1 [compound 227, N-cyclopropyl-2-(difluoromethoxy)-6-methoxy-4-[7-[(4-methyl-1,2,4-triazol-3-yl)methoxy]imidazo[1,2-a]pyridin-3-yl]benzamide] | 100 to 500 |  | > 5000

Reference: patent US12264156B2, “Compounds and pharmaceutical compositions thereof for the treatment of diseases” (GALAPAGOS NV, priority 2018, dated 2025)
